According to US20260224588A1, “BENZODIAZEPINONE-DERIVED INHIBITORS OF EGFR AND HER2” (The Research Foundation for the State University of New York, priority 2023, published 2026):

Assays:
Assay in all cases: KINOMEscan
Assay type in all cases: binding
[1] = biological target: T1, FLT3(D835H) (Homo sapiens, UniProt P36888, D835H); details: 1 μM of compound 4; read-out: POC
T1 construct: purchased Eurofins DiscoverX Corporation

[2] = biological target: T2, RPS6KA5(Kin.Dom.1-N-terminal) (Homo sapiens, UniProt O75582); details: 1 μM of compound 4; read-out: POC
T2 construct: RPS6KA5(Kin.Dom.1-N-terminal); purchased Eurofins DiscoverX Corporation (KINOMEscan screening service)

[3] = biological target: T3, PFCDPK1(P. falciparum) (Plasmodium falciparum, UniProt P62344); details: 1 μM of compound 4; read-out: POC
T3 construct: purchased Eurofins DiscoverX Corporation (KINOMEscan)
T3 sequence (P62344 whole entry): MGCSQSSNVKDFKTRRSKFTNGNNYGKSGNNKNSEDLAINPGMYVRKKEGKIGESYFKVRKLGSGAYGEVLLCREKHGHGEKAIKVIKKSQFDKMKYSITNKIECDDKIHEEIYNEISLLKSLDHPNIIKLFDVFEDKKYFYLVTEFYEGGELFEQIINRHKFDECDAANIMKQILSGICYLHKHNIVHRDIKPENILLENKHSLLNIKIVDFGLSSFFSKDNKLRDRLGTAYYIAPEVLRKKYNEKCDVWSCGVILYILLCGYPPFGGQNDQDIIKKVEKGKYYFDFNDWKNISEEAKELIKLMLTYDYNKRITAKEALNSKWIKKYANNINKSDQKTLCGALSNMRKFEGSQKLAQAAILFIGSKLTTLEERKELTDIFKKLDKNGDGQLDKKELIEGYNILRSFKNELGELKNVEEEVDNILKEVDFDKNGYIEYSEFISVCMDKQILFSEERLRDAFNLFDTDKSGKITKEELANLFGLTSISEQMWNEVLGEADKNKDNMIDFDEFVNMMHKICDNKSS

[4] = biological target: T4, GRK1 (Homo sapiens, UniProt Q15835); details: 1 μM of compound 4; read-out: POC
T4 construct: purchased Eurofins DiscoverX Corporation

[5] = biological target: T5, ABL1(E255K)-phosphorylated (Homo sapiens, UniProt P00519, E255K); details: 1 μM of compound 4; read-out: POC
T5 construct: purchased Eurofins DiscoverX Corporation

[6] = biological target: T6, ZAK (Homo sapiens, UniProt Q9NYL2); details: 1 μM of compound 4; read-out: POC
T6 construct: purchased Eurofins DiscoverX

[7] = biological target: LOK (Homo sapiens, UniProt O94804); details: 1 μM of compound 4; read-out: POC
[8] = biological target: T7, HIPK2 (Homo sapiens, UniProt Q9H2X6); details: 1 μM of compound 4; read-out: POC
T7 construct: purchased Eurofins DiscoverX Corporation

[9] = biological target: T8, EGFR(L747-T751del + Sins) (Homo sapiens, UniProt P00533, DEL747-750/T751S); details: 1 μM of compound 4; read-out: POC
T8 construct: purchased Eurofins DiscoverX (KINOMEscan service)
T8 sequence (P00533 with tags, fused parts or gaps DEL747-750/T751S limits assumed): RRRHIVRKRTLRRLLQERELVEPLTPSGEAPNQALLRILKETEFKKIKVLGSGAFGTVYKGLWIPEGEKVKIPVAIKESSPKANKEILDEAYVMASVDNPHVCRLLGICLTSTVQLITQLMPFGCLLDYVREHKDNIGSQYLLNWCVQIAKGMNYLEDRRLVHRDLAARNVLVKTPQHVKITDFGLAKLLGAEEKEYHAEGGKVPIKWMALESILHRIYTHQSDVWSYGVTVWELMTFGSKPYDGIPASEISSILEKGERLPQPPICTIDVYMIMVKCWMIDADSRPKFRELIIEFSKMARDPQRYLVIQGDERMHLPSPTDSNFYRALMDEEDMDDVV

[10] = biological target: T9, S6K1 (Homo sapiens, UniProt P23443); details: 1 μM of compound 4; read-out: POC
T9 construct: purchased Eurofins DiscoverX (KINOMEscan service)

[11] = biological target: T10, EGFR(G719S) (Homo sapiens, UniProt P00533, G719S); details: 1 μM of compound 4; read-out: POC
T10 construct: purchased Eurofins DiscoverX (KINOMEscan service)

[12] = biological target: PIP5K1A (Homo sapiens, UniProt Q99755); details: 1 μM of compound 4; read-out: POC
[13] = biological target: T11, SGK2 (Homo sapiens, UniProt Q9HBY8); details: 1 μM of compound 4; read-out: POC
T11 construct: purchased Eurofins DiscoverX (KINOMEscan service)

[14] = biological target: CDK2 (Homo sapiens, UniProt P24941); details: 1 μM of compound 4; read-out: POC
[15] = biological target: T12, TAOK1 (Homo sapiens, UniProt Q7L7X3); details: 1 μM of compound 4; read-out: POC
T12 construct: purchased Eurofins DiscoverX Corporation

[16] = biological target: T13, EPHA2 (Homo sapiens, UniProt P29317); details: 1 μM of compound 4; read-out: POC
T13 construct: purchased Eurofins DiscoverX (KINOMEscan service)

[17] = biological target: T14, RIPK4 (Homo sapiens, UniProt P57078); details: 1 μM of compound 4; read-out: POC
T14 construct: purchased Eurofins DiscoverX Corporation (KINOMEscan screening service)

[18] = biological target: CAMK4 (Homo sapiens, UniProt Q16566); details: 1 μM of compound 4; read-out: POC
[19] = biological target: T15, WNK1 (Homo sapiens, UniProt Q9H4A3); details: 1 μM of compound 4; read-out: POC
T15 construct: purchased Eurofins DiscoverX

[20] = biological target: T16, PAK2 (Homo sapiens, UniProt Q13177); details: 1 μM of compound 4; read-out: POC
T16 construct: purchased Eurofins DiscoverX Corporation (KINOMEscan)
T16 sequence (Q13177 whole entry): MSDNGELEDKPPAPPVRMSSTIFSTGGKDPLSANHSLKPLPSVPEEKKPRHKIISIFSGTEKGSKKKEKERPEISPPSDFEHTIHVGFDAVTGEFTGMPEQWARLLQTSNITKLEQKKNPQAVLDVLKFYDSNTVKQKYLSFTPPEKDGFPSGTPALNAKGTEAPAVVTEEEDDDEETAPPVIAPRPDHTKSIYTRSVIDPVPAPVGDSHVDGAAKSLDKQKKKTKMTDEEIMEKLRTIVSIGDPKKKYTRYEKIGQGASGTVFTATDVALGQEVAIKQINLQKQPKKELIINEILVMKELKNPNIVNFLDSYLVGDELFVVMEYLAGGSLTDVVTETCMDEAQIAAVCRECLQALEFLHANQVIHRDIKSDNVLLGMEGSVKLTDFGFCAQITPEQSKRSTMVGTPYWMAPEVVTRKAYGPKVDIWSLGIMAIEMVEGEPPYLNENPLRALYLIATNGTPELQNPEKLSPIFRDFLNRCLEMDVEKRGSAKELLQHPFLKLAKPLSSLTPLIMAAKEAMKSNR

[21] = biological target: KIT (Homo sapiens, UniProt P10721); details: 1 μM of compound 4; read-out: POC
KIT, sequence (P10721 26-976): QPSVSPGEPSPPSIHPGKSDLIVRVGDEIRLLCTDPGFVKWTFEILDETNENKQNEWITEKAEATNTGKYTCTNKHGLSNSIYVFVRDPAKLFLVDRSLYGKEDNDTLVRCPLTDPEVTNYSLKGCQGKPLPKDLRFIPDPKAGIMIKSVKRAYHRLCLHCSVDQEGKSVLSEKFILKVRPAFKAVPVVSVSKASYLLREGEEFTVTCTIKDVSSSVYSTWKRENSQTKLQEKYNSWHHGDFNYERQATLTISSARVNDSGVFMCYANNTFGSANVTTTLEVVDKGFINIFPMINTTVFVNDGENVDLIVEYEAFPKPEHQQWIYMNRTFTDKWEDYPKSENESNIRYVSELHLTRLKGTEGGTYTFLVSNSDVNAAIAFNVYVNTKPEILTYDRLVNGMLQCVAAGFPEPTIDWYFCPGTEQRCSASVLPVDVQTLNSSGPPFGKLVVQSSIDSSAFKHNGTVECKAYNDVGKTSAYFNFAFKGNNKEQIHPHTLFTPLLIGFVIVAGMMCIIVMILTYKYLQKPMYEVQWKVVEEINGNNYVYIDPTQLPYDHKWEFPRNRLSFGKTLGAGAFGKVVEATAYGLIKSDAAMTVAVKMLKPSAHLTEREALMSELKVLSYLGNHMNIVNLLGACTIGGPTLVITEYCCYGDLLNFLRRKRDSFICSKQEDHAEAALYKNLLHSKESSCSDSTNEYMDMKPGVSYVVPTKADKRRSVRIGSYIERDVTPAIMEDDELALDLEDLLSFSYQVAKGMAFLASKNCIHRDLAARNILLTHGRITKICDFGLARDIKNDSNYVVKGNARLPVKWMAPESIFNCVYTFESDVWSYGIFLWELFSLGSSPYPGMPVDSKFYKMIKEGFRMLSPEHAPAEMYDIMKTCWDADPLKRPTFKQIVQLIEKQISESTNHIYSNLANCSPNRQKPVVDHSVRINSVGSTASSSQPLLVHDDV

[22] = biological target: T17, RSK1(Kin.Dom.2-C-terminal) (Homo sapiens, UniProt Q15418); details: 1 μM of compound 4; read-out: POC
T17 construct: RSK1(Kin.Dom.2-C-terminal); purchased Eurofins DiscoverX Corporation (KINOMEscan screening service)

[23] = biological target: KIT(D816H) (Homo sapiens, UniProt P10721, D816H); details: 1 μM of compound 4; read-out: POC
KIT(D816H), sequence (P10721 26-976 D816H): as the sequence (P10721 26-976) above, with D791H counted along it

[24] = biological target: T18, FLT3(D835V) (Homo sapiens, UniProt P36888, D835V); details: 1 μM of compound 4; read-out: POC
T18 construct: purchased Eurofins DiscoverX Corporation

[25] = biological target: T19, ABL1(H396P)-phosphorylated (Homo sapiens, UniProt P00519, H396P); details: 1 μM of compound 4; read-out: POC
T19 construct: purchased Eurofins DiscoverX Corporation

[26] = biological target: T20, VPS34 (Homo sapiens, UniProt Q8NEB9); details: 1 μM of compound 4; read-out: POC
T20 construct: purchased Eurofins DiscoverX
T20 sequence (Q8NEB9 whole entry): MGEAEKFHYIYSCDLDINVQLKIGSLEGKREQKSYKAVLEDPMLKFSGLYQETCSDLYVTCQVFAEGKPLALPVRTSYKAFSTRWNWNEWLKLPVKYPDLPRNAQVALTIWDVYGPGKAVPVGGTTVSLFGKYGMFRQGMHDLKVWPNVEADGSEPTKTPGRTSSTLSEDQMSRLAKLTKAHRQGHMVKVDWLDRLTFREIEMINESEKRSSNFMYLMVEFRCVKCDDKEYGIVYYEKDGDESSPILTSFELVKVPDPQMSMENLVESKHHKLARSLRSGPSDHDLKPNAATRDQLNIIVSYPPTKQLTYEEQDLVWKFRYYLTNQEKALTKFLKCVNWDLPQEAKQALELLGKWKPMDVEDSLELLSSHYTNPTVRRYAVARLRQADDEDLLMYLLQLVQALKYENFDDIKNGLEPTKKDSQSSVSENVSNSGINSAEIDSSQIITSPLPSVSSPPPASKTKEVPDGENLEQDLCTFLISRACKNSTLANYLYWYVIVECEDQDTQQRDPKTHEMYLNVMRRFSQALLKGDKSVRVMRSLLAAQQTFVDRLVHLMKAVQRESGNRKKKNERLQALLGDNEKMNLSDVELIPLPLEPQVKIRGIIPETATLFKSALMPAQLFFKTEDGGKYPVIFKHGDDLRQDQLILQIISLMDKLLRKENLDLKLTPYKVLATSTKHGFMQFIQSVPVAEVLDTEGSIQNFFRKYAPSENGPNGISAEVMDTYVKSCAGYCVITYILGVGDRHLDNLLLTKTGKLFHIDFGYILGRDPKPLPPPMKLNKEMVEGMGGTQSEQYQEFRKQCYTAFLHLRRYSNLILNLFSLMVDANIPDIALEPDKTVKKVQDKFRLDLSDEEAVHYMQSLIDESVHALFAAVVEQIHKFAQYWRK

[27] = biological target: JAK1(JH2domain-pseudokinase) (Homo sapiens, UniProt P23458); details: 1 μM of compound 4; read-out: POC
[28] = biological target: PIK3CD (Homo sapiens, UniProt O00329); details: 1 μM of compound 4; read-out: POC
PIK3CD, sequence (O00329 whole entry): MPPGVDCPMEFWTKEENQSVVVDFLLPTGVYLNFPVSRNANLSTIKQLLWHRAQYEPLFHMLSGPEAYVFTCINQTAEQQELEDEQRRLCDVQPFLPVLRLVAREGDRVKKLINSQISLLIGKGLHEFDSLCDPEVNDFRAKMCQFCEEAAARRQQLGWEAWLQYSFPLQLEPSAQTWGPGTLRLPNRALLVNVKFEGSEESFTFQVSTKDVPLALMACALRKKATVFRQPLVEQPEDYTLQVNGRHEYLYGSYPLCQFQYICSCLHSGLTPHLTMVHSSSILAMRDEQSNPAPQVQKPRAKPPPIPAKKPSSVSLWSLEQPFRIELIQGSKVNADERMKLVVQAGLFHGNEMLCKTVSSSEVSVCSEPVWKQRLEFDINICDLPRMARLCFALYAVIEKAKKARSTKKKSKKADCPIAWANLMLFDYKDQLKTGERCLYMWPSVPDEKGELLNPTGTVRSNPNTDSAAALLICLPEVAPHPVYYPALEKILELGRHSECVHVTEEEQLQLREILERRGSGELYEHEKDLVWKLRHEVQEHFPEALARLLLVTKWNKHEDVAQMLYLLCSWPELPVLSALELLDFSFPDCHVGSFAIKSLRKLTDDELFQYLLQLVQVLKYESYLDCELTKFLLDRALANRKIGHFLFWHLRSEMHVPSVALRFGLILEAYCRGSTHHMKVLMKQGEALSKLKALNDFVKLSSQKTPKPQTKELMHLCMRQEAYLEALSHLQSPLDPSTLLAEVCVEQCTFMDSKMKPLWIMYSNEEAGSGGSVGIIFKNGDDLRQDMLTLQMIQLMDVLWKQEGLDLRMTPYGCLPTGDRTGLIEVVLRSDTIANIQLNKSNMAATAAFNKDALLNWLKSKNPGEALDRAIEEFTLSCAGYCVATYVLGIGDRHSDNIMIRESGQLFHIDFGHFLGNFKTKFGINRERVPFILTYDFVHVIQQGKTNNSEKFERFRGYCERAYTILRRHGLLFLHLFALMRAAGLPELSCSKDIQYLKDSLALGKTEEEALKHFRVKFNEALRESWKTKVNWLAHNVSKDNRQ

[29] = biological target: T21, TYK2(JH1domain-catalytic) (Homo sapiens, UniProt P29597); details: 1 μM of compound 4; read-out: POC
T21 construct: TYK2(JH1domain-catalytic); purchased Eurofins DiscoverX

[30] = biological target: PRKCH (Homo sapiens, UniProt P24723); details: 1 μM of compound 4; read-out: POC
PRKCH, sequence (P24723 whole entry): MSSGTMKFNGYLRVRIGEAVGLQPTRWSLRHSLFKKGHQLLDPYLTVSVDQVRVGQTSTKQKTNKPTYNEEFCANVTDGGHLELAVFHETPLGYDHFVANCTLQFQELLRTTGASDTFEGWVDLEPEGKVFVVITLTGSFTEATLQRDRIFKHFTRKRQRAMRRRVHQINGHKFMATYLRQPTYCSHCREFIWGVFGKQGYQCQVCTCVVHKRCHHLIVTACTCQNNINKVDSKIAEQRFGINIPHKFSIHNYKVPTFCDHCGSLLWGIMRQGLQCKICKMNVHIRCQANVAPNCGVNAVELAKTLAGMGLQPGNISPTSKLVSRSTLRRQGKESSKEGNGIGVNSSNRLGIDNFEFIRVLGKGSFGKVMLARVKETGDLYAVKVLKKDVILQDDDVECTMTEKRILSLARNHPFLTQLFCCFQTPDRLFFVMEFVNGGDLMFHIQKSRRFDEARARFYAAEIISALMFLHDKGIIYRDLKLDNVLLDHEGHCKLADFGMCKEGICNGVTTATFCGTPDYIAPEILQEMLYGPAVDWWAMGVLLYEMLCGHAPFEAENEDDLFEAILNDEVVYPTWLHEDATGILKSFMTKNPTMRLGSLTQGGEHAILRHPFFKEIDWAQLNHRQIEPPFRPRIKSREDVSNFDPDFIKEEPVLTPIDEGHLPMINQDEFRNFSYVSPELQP

[31] = biological target: PRKCQ (Homo sapiens, UniProt Q04759); details: 1 μM of compound 4; read-out: POC
[32] = biological target: PRKG1 (Homo sapiens, UniProt Q13976); details: 1 μM of compound 4; read-out: POC
[33] = biological target: T22, SIK (Homo sapiens, UniProt P57059); details: 1 μM of compound 4; read-out: POC
T22 construct: purchased Eurofins DiscoverX (KINOMEscan service)

[34] = system: FLT3(ITD + F691L); details: 1 μM of compound 4
[35] = biological target: BRAF(V600E) (Homo sapiens, UniProt P15056, V600E); details: 1 μM of compound 4; read-out: POC
[36] = biological target: T23, TLK1 (Homo sapiens, UniProt Q9UKI8); details: 1 μM of compound 4; read-out: POC
T23 construct: purchased Eurofins DiscoverX Corporation

Compound: C=CC(=O)Nc1ccc(OC)c(Nc2cc(-c3[nH]c(CC)nc3-c3cccc(NC(=O)c4cccc5c4NC(=O)c4ccccc4N5)c3)ccn2)c1 [Compound 4, N-(3-(5-(2-((5-Acrylamido-2-methoxyphenyl)amino)pyridin-4-yl)-2-ethyl-1H-imidazol-4-yl)phenyl)-11-oxo-10,11-dihydro-5H-dibenzo[b,e][1,4]diazepine-9-carboxamide]
- remaining binding at 1 µM [1]: 92%
- remaining binding at 1 µM [2]: 83%
- remaining binding at 1 µM [3]: 87%
- remaining binding at 1 µM [4]: 94%
- remaining binding at 1 µM [5]: 65%
- remaining binding at 1 µM [6]: 87%
- remaining binding at 1 µM [7]: 49%
- remaining binding at 1 µM [8]: 100%
- remaining binding at 1 µM [9]: 7.6%
- remaining binding at 1 µM [10]: 100%
- remaining binding at 1 µM [11]: 13%
- remaining binding at 1 µM [12]: 75%
- remaining binding at 1 µM [13]: 83%
- remaining binding at 1 µM [14]: 95%
- remaining binding at 1 µM [15]: 100%
- remaining binding at 1 µM [16]: 100%
- remaining binding at 1 µM [17]: 100%
- remaining binding at 1 µM [18]: 99%
- remaining binding at 1 µM [19]: 100%
- remaining binding at 1 µM [20]: 100%
- remaining binding at 1 µM [21]: 100%
- remaining binding at 1 µM [22]: 75%
- remaining binding at 1 µM [23]: 39%
- remaining binding at 1 µM [24]: 100%
- remaining binding at 1 µM [25]: 74%
- remaining binding at 1 µM [26]: 84%
- remaining binding at 1 µM [27]: 83%
- remaining binding at 1 µM [28]: 71%
- remaining binding at 1 µM [29]: 91%
- remaining binding at 1 µM [30]: 69%
- remaining binding at 1 µM [31]: 18%
- remaining binding at 1 µM [32]: 100%
- remaining binding at 1 µM [33]: 100%
- POC [34]: 79
- remaining binding at 1 µM [35]: 100%
- remaining binding at 1 µM [36]: 87%
